Results taken from ChEMBL document CHEMBL1921696, “Synthesis and biological evaluation of salicylate-based compounds as a novel class of methionine aminopeptidase inhibitors” (Bioorg Med Chem Lett, 2011).
pIC50: −log10 of the molar value. Converted amounts (≈) assume the structure as drawn.

Experiments:
[1] = Inhibition of Escherichia coli recombinant methionine aminopeptidase expressed in Escherichia coli BL21 (DE3) using MetAMC as substrate in presence of Co(II)
[2] = Inhibition of Escherichia coli recombinant methionine aminopeptidase expressed in Escherichia coli BL21 (DE3) using MetAMC as substrate in presence of Mn(II)
[3] = Inhibition of Escherichia coli recombinant methionine aminopeptidase expressed in Escherichia coli BL21 (DE3) using MetAMC as substrate in presence of Fe(II)
Escherichia coli = assay: Antibacterial activity against Escherichia coli AS19 after 10 hrs by fluorescence assay; type: functional, organism-based; conditions: AS19, 10 h

Row | pIC50 [1] | pIC50 [2] | pIC50 [3] | pIC50 (Escherichia coli) | MIC (Escherichia coli) [µg/mL] | Compound
1 | 4.13 | 4.44 | 5.31 | 4.31 | 30 (≈ 104 µM) | O=C(O)c1cc(-c2ccc(Cl)s2)c(Cl)cc1O
2 | 4.15 | 4.94 | 3.97 | < 3.00 | > 282 | COc1cc(Cl)c(-c2ccc(C)s2)cc1C(=O)O
3 | 3.59 | 3.80 | 3.57 | 3.26 | 272 (≈ 1100 µM) | COc1cc(-c2ccc(C)s2)ccc1C(=O)O
4 | 3.48 | 3.47 | 3.60 | 3.06 | 306 (≈ 1300 µM) | Cc1ccc(-c2ccc(C(=O)O)cc2F)s1
5 | 3.54 | 4.01 | < 3.30 | 3.08 | 521 (≈ 1720 µM) | COc1cc(-c2cc(Cl)sc2Cl)ccc1C(=O)O
6 | < 3.30 | 4.76 | 3.72 | < 3.00 | > 234 | COc1ccc(C(=O)O)cc1-c1cccs1
7 | 4.19 | 4.10 | 4.41 | 3.95 | 100 (≈ 454 µM) | O=C(O)c1ccc(-c2cccs2)cc1O
8 | 4.09 | 4.04 | 3.96 | 4.14 | 47 (≈ 201 µM) | Cc1ccc(-c2ccc(C(=O)O)c(O)c2)s1
9 | 3.60 | 4.05 | 3.30 | < 3.00 | > 234 | COc1cc(-c2cccs2)ccc1C(=O)O
10 | 3.78 | 3.93 | 3.69 | 3.19 | 297 (≈ 1160 µM) | O=C(O)c1ccc(-c2ccc(Cl)s2)c(F)c1
11 | 4.06 | 4.20 | 4.14 | 4.47 | 28 (≈ 110 µM) | O=C(O)c1ccc(-c2ccc(Cl)s2)cc1O
12 | 3.33 | 4.47 | 3.78 | < 3.00 | > 248 | COc1ccc(C(=O)O)cc1-c1ccc(C)s1
13 | 3.60 | 3.80 | < 3.30 | < 3.00 | > 204 | O=C(O)c1ccc(-c2cccs2)cc1
14 | 4.11 | 4.42 | 5.17 | 3.79 | 87 (≈ 324 µM) | Cc1ccc(-c2cc(C(=O)O)c(O)cc2Cl)s1
15 | 3.60 | 3.84 | 3.57 | < 3.00 | > 222 | O=C(O)c1ccc(-c2cccs2)c(F)c1
16 | 3.69 | 4.72 | 3.68 | < 3.00 | > 268 | COc1cc(Cl)c(-c2cccs2)cc1C(=O)O
17 | 4.06 | 4.47 | 5.51 | 4.13 | 38 (≈ 149 µM) | O=C(O)c1cc(-c2cccs2)c(Cl)cc1O
18 | 3.93 | 4.01 | 4.52 | 4.29 | 33 (≈ 114 µM) | O=C(O)c1ccc(-c2cc(Cl)sc2Cl)cc1O
